According to patent US20210038579A1, “Treatment Of Patients With Classic Fabry Disease” (Amicus Therapeutics, Inc., priority 2018, published 2021):

Details: human, in vivo
Method: Study Design. Following eligibility-baseline assessments (2 months), patients were randomized to Stage 1—6 months of double-blind administration of 150 mg migalastat hydrochloride or placebo every other day. All patients completing Stage 1 were eligible to receive open-label migalastat in Stage 2 (months 6-12) and for an additional year (months 13-24) thereafter. […] Study completers were eligible to enroll in the open-label extension study for up to 5 years.
Safety Analysis and Adverse Events. Randomized patients receiving ≤1 dose were included in the safety analysis, which comprised vital signs, physical exams, electrocardiograms, clinical labs, and adverse events.

In the case of OC[C@H]1NC[C@H](O)[C@@H](O)[C@H]1O [migalastat], the deaths is reported as “No deaths were reported”.
